According to patent US5340829A, “Immunoregulatory agents” (priority 1992, dated 1994):
“Also recorded” adds a separate entry of the source. Read-outs that look alike come from different tables or passages of the source.

What was measured:
[1] = system: Mouse peritoneal cells; test: 3H-thymidine incorporation in peritoneal cells, with or without LPS (Experiment 15); assay type: cell-based; conditions: concentrations as high as 10^-6 M/L; control cells or cells stimulated using LPS
[2] = system: anti-PHI.X 174 bacteriophage antibodies; test: Phage inhibition assay of serum antibody after immunization with bacteriophage PHI.X 174 (Experiment 7); assay type: in vivo, mice; conditions: sorbinil daily for five days
Source text: Antibodies generated against the bacteriophage were quantitated by a phage inhibition assay, which is based on the observation that antibodies specific for the bacteriophage will inhibit the ability of the bacteriophage to lyse bacteria. Ochs, H. D., et al., Disorders of the B-cell system, in Immunologic Disorders in Infants and Children, E. R. Stiehm, et al., eds., W. B. Sanders, Co. Philadelphia, p. 239, 1980. The data was expressed as Kv values derived according to the following formula: Rate of phage inactivation, Kv D/T×1n Po/P, where D=reciprocal of antibody dilution, T=60 minutes, Po=initial number of PFU, and P=number of plaques at 60 minutes.
Beginning with one week after this primary immunization mice were bled weekly, and serum samples from individual mice were tested for the ability to inhibit bacteriophage lysis of bacteria.

[3] = system: Human macrophages; test: 3H-thymidine incorporation, LPS-stimulated macrophages (Experiment 17); assay type: cell-based; conditions: concentrations as high as 10^-5 M/L
Protocol: Human macrophages were stimulated using LPS in vitro, and ^3 H-thymidine incorporation was measured.

[4] = system: delayed-type hypersensitivity (DTH); test: DTH ear swelling, comparison of sorbinil, tolrestat, WF-3681 and NSAIDs (Experiment 23, TABLE 5); assay type: in vivo, mice
Protocol: Delayed type hypersensitivity, which involves the participation of T lymphocytes and macrophages, can be studied in vivo by exposing (or priming) a mammal to a novel antigen and then reexposing (or challenging) the primed animal to the same antigen four to seven days later. The classic DTH response includes symptoms of inflammatory response, induration and erythema, which peak at 24 to 48 hours after challenging and then decline slowly.
Eight-week old female C57BL/6J mice (Jackson Labs) were divided into primed and unprimed groups. The five mice in the primed group were primed to 2,4-dinitrofluorobenzene (DNFB; Sigma Chemical Co., Grade 1, approx. 98%, Lot 129C-0065, No. d-6879) by painting their shaved ventral skins with 0.1 ml of 0.5% DNFB in ethanol:acetone (3:1). The five mice in the unprimed group were shaved and topically painted on their ventral skins with the ethanol:acetone (3:1) vehicle alone. The mice in both groups were challenged with DNFB four days later. A suitable patch of skin, the ear, was chosen for challenging. One ear was designated for challenging and the other to serve as a control. The thickness of each ear across the pinna was measured using micrometer calipers. The first measurements were taken four days after priming and are plotted as day 0 in FIG. 13. Next, each mouse was subjected to the following challenge regimen: one ear was challenged with one drop of 0.35% DNFB in olive oil, and the other (unchallenged control) ear was exposed to olive oil alone. The ear thicknesses (ET) of the challenged ear and the unchallenged ear were measured daily, and the swelling responses are plotted in FIG. 13 as: [formula]
Three groups of eight-week old female C57BL/6J mice were primed to DNFB as previously described. […] Six hours later the first sets of ear measurements were taken, and one ear of each mouse was challenged.
The Table has 4 columns, listing (left to right) each drug tested in column 1, drug concentrations in column 2, relative swelling in column 3, and effectiveness in column 4.

[5] = system: spleen cells from irradiated C57B6 mice with thymocytes from Balb C mice; test: Mixed lymphocyte response (Experiment 19); assay type: cell-based; conditions: concentrations as high as 10^-5 M/L
[6] = system: Human monocytes; test: Monocyte adherence in vitro (Experiment 16); assay type: cell-based; conditions: concentrations as high as 10^-6 M/L
Source text: Human monocytes were isolated and tested for adherence in vitro in the presence and absence of sorbinil.

[7] = system: swelling of popliteal lymph nodes; test: Popliteal lymph node assay (Experiment 20); assay type: in vivo; conditions: Balb C mice injected in the foot pad with cells from C57BL6 mice
Protocol: In vivo, popliteal lymph node assays were conducted on normal Balb C mice.

[8] = system: spleen cells stimulated with Concanavalin A (Con A); test: Spleen cell proliferative response to Con A after oral sorbinil (Experiment 8); assay type: in vivo, mice; conditions: for activation at 11 mg/kg/day: Mus musculus, read-out: Enhancement of proliferative response
Protocol: The proliferative response of T lymphocytes to the Con A mitogen requires the obligatory participation of adherent accessory cells, which are presumed to be macrophages.
Mice received sorbinil orally for one, two, or three days prior to sacrifice. The dosage was 11 mg/kg per day. Control mice received the buffer vehicle alone. Mice from these four groups were sacrificed and their spleens harvested. The spleens were teased into single-cell suspensions that were cultured with different concentrations of Con A for three or four days. One microcurie of tritiated thymidine was added to each culture 18 hours before the cultures were terminated. Incorporation of the tritiated thymidine into cellular DNA was measured by using a liquid scintillation counter. The results of this experiment are presented in FIGS. 20 and 21 and are summarized as follows: […]

[9] = system: Human mononuclear cells; test: PMA-stimulated superoxide production (Experiment 11); assay type: cell-based; conditions: concentrations as high as 10^-5 M/L; PMA stimulated normal cells
Source text: Human mononuclear cells were studied for superoxide production in culture in the presence and absence of sorbinil. Superoxide production was stimulated in normal cells using the mitogen phorbol myristate acetate (PMA).

[10] = system: DTH reaction in ears; test: Histologic examination of DNFB-challenged ear tissue (Experiment 5); assay type: in vivo, mice
Protocol: FIG. 16 depicts the ear of a primed mouse which has not been challenged with DNFB. The epidermis 22 is devoid of mononuclear infiltrate 28, as is the dermal compartment 24. A layer of cartilage 26 is located in the center of the ear. FIG. 17 represents the ear of a buffer-treated primed mouse which had been challenged 24 hours previously with DNFB. Note the pronounced edema in the dermal compartment of the skin 24 as well as the extensive mononuclear cell infiltrate (indicated by arrows 28) in both the dermis and epidermis. […] There were also fewer mononuclear cells 28 in the epidermis 22 as well.

[11] = system: Mouse P338D cells; test: Release of 3H-arachidonic acid metabolites, A23187-stimulated cells (Experiment 9); assay type: cell-based; conditions: 10^-6 M/L sorbinil; stimulated by A23187
Source text: The assay protocol was as described generally in Henderson, W. R., and S. J. Klebanoff, J. Biol. Chem. 258: 13522-13527, 1983, which is hereby incorporated by reference.

[12] = system: white cells; conditions: in vivo

O=C1NC(=O)[C@@]2(CCOc3ccc(F)cc32)N1 [Sorbinil, 4(S)-2,3-dihydro-6-fluorospiro-(4H-1-benzopyran-4,4'-imidazolidine)-2',5'-dione]
3H-thymidine incorporation [1]: no significant effect | Kv, rate of phage inactivation (serum titer of anti-PHI.X 174 antibodies) ([2]; one week after priming): 5.0±2.4 | Kv, rate of phage inactivation (serum titer of anti-PHI.X 174 antibodies) ([2]; two weeks after primary immunization): 18.4±11.4 | Incorporation of 3H-thymidine [3]: no effect | effectiveness (1 - R) (100%) ([4]; 6 μM, single dose after challenge): 39% | effectiveness (1 - R) (100%) ([4]; 6 μM, single dose before challenge): 32% | effectiveness (1 - R) (100%) ([4]; concentration 6 μM): 34% | effectiveness (1 - R) (100%) ([4]; concentration 6 μM, listed as sorbinil): about 30% | effectiveness (1 - R) (100%) ([4]; concentration 10 μM): 70% | Effect on DTH as measured by ear swelling (in words) ([4]; mouse, in vivo): strong and substantially identical inhibitory effect; also recorded: effective, as a single dose, when administered either before or after the antigenic challenge | Mixed lymphocyte response [5]: no effect | Adherence of monocytes [6]: no effect | Swelling of popliteal lymph nodes [7]: no effect | activation at 11 mg/kg/day ([8]; 72 h): 9% | activation at 11 mg/kg/day ([8]; 96 h): 3 to 30% | Reduction of proliferative response ([8]; cultures harvested day four, sorbinil three days prior to harvest): 25-58% | Reduction of proliferative response ([8]; cultures harvested day four, sorbinil two days prior to sacrifice): 5 to 18% | Reduction of proliferative response ([8]; cultures harvested day three, sorbinil one day prior to sacrifice, 1 μmg of Con A/ml): 25% | Reduction of proliferative response ([8]; cultures harvested day three, sorbinil one day prior to sacrifice, Con A 2 μmg/ml): 18% | Reduction of proliferative response ([8]; cultures harvested day three, sorbinil three days prior to sacrifice, Con A 2 μmg/ml): 30% | Reduction of proliferative response ([8]; cultures harvested day three, sorbinil three days prior to sacrifice, Con A 5 μmg/ml): 27% | Reduction of proliferative response ([8]; cultures harvested day three, sorbinil two days prior to sacrifice, 1 μmg of Con A/ml): 22% | Reduction of proliferative response ([8]; cultures harvested day three, sorbinil two days prior to sacrifice, Con A 2 μmg/ml): 11% | Proliferative response to the mitogen Con A (in words) ([8]; sorbinil 11 mg/kg per day orally prior to sacrifice): reduced proliferative response; also recorded: inhibits the proliferative response of T-cells | Kinetics of the proliferative response of spleen cells to Con A ([8]; sorbinil one, two, or three days prior to spleen cell harvesting): not affected | Dose response pattern to Con A ([8]; sorbinil-treated vs buffer-treated mice): similar | Production of superoxide [9]: no effect | Edema of dermal compartment ([10]; primed mouse challenged 24 hours previously with DNFB, vs buffer-treated): much less edematous | Mononuclear cell infiltration in challenged ears ([10]; sorbinil-treated vs challenged control mice): infiltration was reduced | Release of arachidonic acid metabolites [11]: no effect | White cell population (differential blood count) [12]: did not affect the population of white cells
